Experimental data taken from the SangsterLogP compilation.

assay: method code SF-AS, from Wang, W.; Wang, L.; Tian, L.; Zhang, Z.; Qiu, J. (1987). Partition coefficients of the intermediate of pyrethroid in n-octanol/water system. Huazhong Gongxueyuan Xuebao, 15(1)135-137.

Row | Compound | logP
1 | Cc1ccc(CC#N)cc1 | 1.67
2 | N#CCc1ccc(Cl)cc1 | 2.47
3 | COCc1ccc(CC#N)cc1 | 1.23
4 | COCc1ccc(COC)cc1 | 1.28
5 | ClCc1ccc(Cl)cc1 | 3.18
6 | COCc1ccccc1 | 1.67

Further lines, results first:

Row | logP | Compound
7 | 3.41 | CC(C)C(C#N)c1ccc(Cl)cc1 (stereo not given)
8 | 2.16 | CCOCc1ccccc1
9 | 2.41 | C=CCOCc1ccccc1

assay: not given

Row | logP | Compound
10 | 1.23 | COCc1ccc(C#N)cc1
